From article PMC9958709 (Pharmaceuticals, 2023)

Assays:
[1] = biological target: acetylcholinesterase (AChE) (Homo sapiens, UniProt P22303); test: biochemical; assay type: biochemical; conditions: for IC50: read-out: AChE IC50 (µM ± SEM)
Method: (§1) The AChE/(BuChE) inhibitory test was measured using a spectrophotometric method developed by Elman et al.. A buffer solution containing phosphate (pH 8.0) of volume 140 μL; 20 μL of each AChE/BuChE solution; and 20 μL of the test sample were incubated at room temperature for 15 min. […] was used to start the reaction, followed by the addition of DTNB. ATCh or BTCh hydrolyzed the reaction of DTNB with thiocholine for 15 min; unrestricted by AChE and BuChE enzymatic hydrolysis. […] Each sample’s inhibitory activity was measured in terms of IC50 ([…]) or μM. For all substances, the IC50 values were derived using a generic graph.

[2] = biological target: butyrylcholinesterase (BuChE) (Homo sapiens, UniProt P06276); test: biochemical; assay type: biochemical; conditions: for IC50: read-out: BuChE IC50 (µM ± SEM)
Method: as §1

Sequence of butyrylcholinesterase (BuChE) (P06276 29-602): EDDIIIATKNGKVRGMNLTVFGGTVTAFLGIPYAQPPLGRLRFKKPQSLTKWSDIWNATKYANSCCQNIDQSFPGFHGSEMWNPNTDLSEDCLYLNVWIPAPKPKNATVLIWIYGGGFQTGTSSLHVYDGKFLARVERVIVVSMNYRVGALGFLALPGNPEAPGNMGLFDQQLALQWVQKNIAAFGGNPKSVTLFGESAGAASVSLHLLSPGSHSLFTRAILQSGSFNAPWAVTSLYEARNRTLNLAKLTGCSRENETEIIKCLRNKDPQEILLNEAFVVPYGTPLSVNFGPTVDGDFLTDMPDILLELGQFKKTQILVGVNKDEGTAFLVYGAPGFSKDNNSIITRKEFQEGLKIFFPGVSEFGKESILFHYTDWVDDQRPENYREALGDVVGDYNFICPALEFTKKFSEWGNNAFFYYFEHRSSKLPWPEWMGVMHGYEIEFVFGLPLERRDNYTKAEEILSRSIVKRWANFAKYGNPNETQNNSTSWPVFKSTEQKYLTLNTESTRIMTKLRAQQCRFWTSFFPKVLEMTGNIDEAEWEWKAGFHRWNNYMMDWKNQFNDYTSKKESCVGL
Sequence of acetylcholinesterase (AChE) (P22303 32-614, species assumed): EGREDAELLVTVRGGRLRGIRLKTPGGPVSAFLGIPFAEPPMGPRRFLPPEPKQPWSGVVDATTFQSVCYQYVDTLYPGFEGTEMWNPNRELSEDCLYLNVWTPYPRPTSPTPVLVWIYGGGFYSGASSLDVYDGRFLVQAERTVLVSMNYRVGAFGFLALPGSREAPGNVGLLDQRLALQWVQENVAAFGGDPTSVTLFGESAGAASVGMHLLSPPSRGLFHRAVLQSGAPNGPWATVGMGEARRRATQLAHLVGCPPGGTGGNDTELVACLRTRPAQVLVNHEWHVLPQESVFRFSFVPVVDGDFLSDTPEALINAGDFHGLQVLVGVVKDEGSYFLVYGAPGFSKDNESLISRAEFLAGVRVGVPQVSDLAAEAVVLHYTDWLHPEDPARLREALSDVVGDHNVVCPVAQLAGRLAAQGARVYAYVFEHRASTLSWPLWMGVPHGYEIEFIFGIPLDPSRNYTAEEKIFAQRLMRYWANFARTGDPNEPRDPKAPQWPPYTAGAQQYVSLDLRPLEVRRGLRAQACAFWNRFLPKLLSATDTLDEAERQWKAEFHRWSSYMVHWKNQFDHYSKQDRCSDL

SMILES	IC50 [1] [µM]	IC50 [2] [µM]	inhibition of acetylcholinesterase, in words [1]	inhibition of butyrylcholinesterase, in words [2]
COc1ccc(-c2nc3cc(OC)ccc3[nH]2)c(OC)c1 [Compound 19]	9.2 ± 0.2	6.8 ± 0.2		
COc1ccc2[nH]c(-c3c(O)ccc4ccccc34)nc2c1 [Compound 14]			did not show any activity	did not show any activity
COc1ccc2[nH]c(-c3cc(OC)c(O)c(OC)c3)nc2c1 [Compound 21]	2.1 ± 0.1	2.7 ± 0.1		
COc1ccc2[nH]c(-c3cc(OC)c(Br)cc3OC)nc2c1 [Compound 20]			did not show any activity	did not show any activity
COc1ccc2[nH]c(-c3ccc(O)cc3)nc2c1 [Compound 15]	0.8 ± 0.001	0.9 ± 0.001		
CCOc1ccc(-c2nc3cc(OC)ccc3[nH]2)cc1OC [Compound 18]	11.3 ± 0.3	9.8 ± 0.3		
COc1ccc2[nH]c(-c3ccc(OCc4ccccc4)cc3)nc2c1 [Compound 7]	5.8 ± 0.1	5.9 ± 0.1		
COc1ccc2[nH]c(-c3ccccc3[N+](=O)[O-])nc2c1 [Compound 4]	3.4 ± 0.1	3.6 ± 0.1		
COc1ccc2[nH]c(-c3ccc(C)cc3C)nc2c1 [Compound 6]	4.1 ± 0.1	5.1 ± 0.2		
COc1ccc2[nH]c(-c3ccc(N(C)C)cc3)nc2c1 [Compound 8]	6.8 ± 0.2	4.7 ± 0.1		
COc1ccc2[nH]c(-c3ccc(OC)c(O)c3)nc2c1 [Compound 9]	2.3 ± 0.1	2.1 ± 0.1		
COc1ccc2[nH]c(-c3ccc4ccccc4c3)nc2c1 [Compound 5]	25.3 ± 0.4	25.8 ± 0.4		
COc1ccc2[nH]c(-c3ccc(Cl)c(Cl)c3)nc2c1 [Compound 3]	0.05 ± 0.001	0.08 ± 0.001		
COc1ccc2[nH]c(-c3ccc(Cl)cc3Cl)nc2c1 [Compound 11]	0.2 ± 0.001	0.3 ± 0.001		
COc1ccc2[nH]c(-c3cc(Cl)cc(Cl)c3O)nc2c1 [Compound 10]	0.1 ± 0.001	0.4 ± 0.001		
COc1ccc2[nH]c(-c3c4ccccc4cc4ccccc34)nc2c1 [Compound 13]			did not show any activity	did not show any activity
COc1ccc2[nH]c(-c3cc(Br)ccc3OC)nc2c1 [Compound 17]	6.1 ± 0.1	3.9 ± 0.1		
COc1ccc2[nH]c(-c3cccc(O)c3)nc2c1 [Compound 16]	1.3 ± 0.1	2.1 ± 0.1		
COc1ccc2[nH]c(-c3cccc([N+](=O)[O-])c3)nc2c1 [Compound 2, 5-Methoxy-2-(3-Nitrophenyl)-1H-Benzo[d]-Imidazole]	5.1 ± 0.1	5.9 ± 0.1		
COc1ccc2[nH]c(-c3ccc([N+](=O)[O-])cc3)nc2c1 [Compound 1, 5-Methoxy-2-(4-Nitrophenyl)-1H-Benzo[d]-Imidazole]	2.1 ± 0.1	1.6 ± 0.1		
COc1ccc2nc(-c3ccc(-c4nc5ccc(OC)cc5[nH]4)cc3)[nH]c2c1 [Compound 12]	5.1 ± 0.1	5.8 ± 0.1		
